Key:
Histone deacetylase 2 = Histone deacetylase 2 (Homo sapiens, UniProt Q92769); assay: Inhibition of human recombinant HDAC2 using ArgHisLysLys(Ac) as substrate by fluorescence based analysis
Histone deacetylase 8 = target: T1, Histone deacetylase 8 (Homo sapiens, UniProt Q9BY41); assay: Inhibition of human recombinant HDAC8 using ArgHisLysLys(Ac) as substrate by fluorescence based analysis
T1 sequence (Q9BY41 whole entry): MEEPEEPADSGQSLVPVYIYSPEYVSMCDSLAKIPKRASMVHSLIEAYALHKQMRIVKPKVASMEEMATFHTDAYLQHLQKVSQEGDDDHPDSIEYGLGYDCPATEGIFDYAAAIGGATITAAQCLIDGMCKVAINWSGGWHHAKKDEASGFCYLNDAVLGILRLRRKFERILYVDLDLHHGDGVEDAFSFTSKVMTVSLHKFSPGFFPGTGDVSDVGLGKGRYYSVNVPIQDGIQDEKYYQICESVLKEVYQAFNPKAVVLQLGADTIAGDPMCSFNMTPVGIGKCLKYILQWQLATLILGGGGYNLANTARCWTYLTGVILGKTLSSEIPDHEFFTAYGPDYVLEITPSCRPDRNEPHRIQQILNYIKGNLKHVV

Histone deacetylase 9 = Histone deacetylase 9 (Homo sapiens, UniProt Q9UKV0); assay: Inhibition of human recombinant HDAC9 using ArgHisLysLys(Ac) as substrate by fluorescence based analysis
Sequence of Histone deacetylase 9 (Q9UKV0 whole entry): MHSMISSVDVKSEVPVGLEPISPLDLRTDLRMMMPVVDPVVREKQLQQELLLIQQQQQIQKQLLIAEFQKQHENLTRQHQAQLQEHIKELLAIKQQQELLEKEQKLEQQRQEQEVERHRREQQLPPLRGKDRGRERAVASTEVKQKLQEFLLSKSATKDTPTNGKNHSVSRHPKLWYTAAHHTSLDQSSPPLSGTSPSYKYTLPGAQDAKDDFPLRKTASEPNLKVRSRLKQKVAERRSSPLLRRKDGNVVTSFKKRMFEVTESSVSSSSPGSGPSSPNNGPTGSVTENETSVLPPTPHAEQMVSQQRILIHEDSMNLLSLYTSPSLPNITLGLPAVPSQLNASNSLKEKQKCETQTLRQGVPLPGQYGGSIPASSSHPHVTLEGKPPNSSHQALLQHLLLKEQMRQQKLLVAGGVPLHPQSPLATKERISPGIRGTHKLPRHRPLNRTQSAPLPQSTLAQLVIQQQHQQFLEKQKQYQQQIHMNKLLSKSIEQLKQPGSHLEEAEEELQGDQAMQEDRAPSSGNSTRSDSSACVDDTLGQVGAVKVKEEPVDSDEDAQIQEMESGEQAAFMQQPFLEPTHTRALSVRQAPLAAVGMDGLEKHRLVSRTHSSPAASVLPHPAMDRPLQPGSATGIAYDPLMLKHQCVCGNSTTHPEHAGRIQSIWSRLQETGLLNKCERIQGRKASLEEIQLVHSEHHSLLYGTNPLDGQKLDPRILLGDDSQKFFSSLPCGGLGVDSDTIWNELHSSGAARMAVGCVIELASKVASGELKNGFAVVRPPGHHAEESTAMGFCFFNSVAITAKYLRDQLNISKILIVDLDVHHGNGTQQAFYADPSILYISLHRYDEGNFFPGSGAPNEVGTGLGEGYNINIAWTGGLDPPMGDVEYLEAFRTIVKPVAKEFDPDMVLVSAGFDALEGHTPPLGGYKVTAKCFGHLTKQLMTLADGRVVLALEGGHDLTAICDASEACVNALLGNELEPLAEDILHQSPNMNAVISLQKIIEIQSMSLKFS

Histone deacetylase 4 = Histone deacetylase 4 (Homo sapiens, UniProt P56524); assay: Inhibition of human recombinant HDAC4 using ArgHisLysLys(Ac) as substrate by fluorescence based analysis
Sequence of Histone deacetylase 4 (P56524 whole entry): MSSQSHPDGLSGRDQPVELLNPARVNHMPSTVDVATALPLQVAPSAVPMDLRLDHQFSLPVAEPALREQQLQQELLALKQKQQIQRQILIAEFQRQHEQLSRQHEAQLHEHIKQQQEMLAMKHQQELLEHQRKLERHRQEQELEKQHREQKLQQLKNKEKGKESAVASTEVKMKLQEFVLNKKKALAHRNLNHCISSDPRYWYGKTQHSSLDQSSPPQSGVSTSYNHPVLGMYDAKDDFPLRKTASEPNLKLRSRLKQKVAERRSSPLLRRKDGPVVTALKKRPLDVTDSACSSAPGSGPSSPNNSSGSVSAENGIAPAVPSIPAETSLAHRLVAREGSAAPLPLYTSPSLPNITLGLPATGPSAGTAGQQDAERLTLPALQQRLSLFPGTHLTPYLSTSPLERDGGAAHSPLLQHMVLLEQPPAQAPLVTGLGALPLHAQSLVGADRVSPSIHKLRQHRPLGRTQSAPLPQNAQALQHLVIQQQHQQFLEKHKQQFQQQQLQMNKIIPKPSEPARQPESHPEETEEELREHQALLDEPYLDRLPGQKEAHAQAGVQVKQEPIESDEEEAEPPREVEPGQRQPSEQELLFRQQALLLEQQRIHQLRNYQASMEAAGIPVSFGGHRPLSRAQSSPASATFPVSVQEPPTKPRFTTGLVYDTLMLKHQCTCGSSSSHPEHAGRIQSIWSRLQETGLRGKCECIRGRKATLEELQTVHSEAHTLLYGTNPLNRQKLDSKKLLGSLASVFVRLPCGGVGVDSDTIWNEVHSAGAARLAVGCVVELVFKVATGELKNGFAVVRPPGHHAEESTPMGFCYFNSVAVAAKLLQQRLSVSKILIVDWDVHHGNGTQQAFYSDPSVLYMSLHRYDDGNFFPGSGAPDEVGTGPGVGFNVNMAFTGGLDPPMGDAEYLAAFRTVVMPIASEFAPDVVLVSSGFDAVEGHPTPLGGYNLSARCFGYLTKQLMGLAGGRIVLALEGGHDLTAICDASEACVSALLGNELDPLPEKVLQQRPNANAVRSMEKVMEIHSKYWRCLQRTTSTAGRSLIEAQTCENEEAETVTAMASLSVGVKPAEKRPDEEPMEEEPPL

Histone deacetylase 7 = target: T2, Histone deacetylase 7 (Homo sapiens, UniProt Q8WUI4); assay: Inhibition of human recombinant HDAC7 using ArgHisLysLys(Ac) as substrate by fluorescence based analysis
T2 sequence (Q8WUI4 whole entry): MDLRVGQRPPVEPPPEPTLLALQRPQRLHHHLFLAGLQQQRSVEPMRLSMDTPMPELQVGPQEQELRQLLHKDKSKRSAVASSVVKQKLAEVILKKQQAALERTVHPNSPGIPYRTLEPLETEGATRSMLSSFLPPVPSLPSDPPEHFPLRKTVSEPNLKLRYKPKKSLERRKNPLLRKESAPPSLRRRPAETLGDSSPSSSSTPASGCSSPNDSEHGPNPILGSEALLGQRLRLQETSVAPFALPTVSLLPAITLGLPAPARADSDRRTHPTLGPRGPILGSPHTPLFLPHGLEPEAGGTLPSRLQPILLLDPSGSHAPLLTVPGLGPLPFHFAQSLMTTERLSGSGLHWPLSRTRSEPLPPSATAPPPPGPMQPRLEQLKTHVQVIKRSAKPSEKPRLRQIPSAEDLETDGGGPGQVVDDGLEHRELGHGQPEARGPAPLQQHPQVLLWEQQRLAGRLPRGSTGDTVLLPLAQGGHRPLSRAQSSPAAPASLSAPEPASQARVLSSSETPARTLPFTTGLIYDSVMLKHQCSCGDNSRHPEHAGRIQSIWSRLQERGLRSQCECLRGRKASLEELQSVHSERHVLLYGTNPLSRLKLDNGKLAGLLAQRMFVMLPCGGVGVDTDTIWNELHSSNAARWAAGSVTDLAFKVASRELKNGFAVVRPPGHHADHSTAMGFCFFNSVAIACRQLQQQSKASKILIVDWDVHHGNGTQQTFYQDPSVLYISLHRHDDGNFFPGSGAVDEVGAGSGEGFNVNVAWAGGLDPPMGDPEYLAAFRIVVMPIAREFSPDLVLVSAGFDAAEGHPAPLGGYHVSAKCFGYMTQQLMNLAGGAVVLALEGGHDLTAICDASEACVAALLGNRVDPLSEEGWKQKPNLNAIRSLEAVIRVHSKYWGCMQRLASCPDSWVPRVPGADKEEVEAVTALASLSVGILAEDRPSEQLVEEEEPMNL

Histone deacetylase 11 = target: T3, Histone deacetylase 11 (Homo sapiens, UniProt Q96DB2); assay: Inhibition of human recombinant HDAC11 using ArgHisLysLys(Ac) as substrate by fluorescence based analysis
T3 sequence (Q96DB2 whole entry): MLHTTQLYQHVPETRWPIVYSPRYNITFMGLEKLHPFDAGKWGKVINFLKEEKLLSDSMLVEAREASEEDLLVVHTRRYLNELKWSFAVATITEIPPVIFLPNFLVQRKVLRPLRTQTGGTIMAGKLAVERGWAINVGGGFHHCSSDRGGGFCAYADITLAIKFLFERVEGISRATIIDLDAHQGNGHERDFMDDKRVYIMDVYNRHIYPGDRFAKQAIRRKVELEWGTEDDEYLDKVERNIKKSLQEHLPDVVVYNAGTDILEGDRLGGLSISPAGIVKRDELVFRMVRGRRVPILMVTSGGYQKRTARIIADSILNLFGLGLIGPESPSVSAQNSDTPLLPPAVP

Histone deacetylase 5 = Histone deacetylase 5 (Homo sapiens, UniProt Q9UQL6); assay: Inhibition of human recombinant HDAC5 using ArgHisLysLys(Ac) as substrate by fluorescence based analysis
Sequence of Histone deacetylase 5 (Q9UQL6 whole entry): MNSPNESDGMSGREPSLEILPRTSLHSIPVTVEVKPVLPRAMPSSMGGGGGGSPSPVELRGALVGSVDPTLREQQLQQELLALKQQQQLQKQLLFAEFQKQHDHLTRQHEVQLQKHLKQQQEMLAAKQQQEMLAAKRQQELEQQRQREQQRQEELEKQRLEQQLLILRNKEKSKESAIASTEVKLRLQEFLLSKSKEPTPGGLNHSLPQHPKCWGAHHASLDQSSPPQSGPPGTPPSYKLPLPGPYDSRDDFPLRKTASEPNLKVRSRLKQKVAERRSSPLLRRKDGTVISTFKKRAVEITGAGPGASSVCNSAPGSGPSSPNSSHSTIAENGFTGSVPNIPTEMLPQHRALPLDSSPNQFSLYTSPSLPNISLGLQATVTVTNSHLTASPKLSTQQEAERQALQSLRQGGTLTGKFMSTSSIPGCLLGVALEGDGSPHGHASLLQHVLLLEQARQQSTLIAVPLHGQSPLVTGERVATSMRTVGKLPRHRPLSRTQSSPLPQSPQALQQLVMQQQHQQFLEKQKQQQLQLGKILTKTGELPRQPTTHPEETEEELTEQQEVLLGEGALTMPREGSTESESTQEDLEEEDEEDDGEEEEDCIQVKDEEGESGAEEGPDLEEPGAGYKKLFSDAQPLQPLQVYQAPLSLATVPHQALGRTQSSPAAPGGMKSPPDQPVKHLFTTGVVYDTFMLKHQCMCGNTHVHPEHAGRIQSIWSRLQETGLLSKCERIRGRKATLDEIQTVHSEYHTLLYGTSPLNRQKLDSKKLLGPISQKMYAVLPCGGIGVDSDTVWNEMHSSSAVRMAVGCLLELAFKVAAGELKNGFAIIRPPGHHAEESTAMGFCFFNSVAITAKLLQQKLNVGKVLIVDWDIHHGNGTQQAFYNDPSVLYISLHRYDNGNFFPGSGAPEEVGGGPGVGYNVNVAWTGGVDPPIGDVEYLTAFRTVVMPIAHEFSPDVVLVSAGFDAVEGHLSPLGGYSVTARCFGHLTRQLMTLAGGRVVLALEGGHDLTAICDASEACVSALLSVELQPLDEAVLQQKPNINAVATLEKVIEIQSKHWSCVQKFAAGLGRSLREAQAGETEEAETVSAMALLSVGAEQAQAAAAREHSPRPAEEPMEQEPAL

Measured: IC50

Sequence of Histone deacetylase 2 (Q92769 whole entry): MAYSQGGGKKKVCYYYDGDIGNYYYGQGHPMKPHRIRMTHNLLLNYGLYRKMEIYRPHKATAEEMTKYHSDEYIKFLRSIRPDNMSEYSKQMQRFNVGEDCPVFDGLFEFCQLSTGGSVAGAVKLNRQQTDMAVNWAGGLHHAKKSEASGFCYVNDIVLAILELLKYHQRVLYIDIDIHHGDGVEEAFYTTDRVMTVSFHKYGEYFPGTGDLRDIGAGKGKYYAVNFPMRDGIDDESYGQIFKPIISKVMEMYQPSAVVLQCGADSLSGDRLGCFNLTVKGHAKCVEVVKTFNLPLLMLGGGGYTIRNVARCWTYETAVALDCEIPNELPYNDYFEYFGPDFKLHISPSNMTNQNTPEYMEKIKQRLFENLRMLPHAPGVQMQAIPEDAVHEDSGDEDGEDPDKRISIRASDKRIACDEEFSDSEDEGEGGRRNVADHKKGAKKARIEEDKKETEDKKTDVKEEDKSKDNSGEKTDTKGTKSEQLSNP

O=C(CCCCC[C@@H]1CN(O)C1=O)Nc1ccccc1
> 1000 µM: Histone deacetylase 2 | Histone deacetylase 8 | Histone deacetylase 9 | Histone deacetylase 4 | Histone deacetylase 7 | Histone deacetylase 11 | Histone deacetylase 5

Nc1ccccc1N1CC(CCCCCC(=O)Nc2ccccc2)C1=O (stereo not drawn)
> 1000 µM: Histone deacetylase 2 | Histone deacetylase 8 | Histone deacetylase 9 | Histone deacetylase 4 | Histone deacetylase 7 | Histone deacetylase 11 | Histone deacetylase 5

O=C(CCCCC[C@H]1CN(O)C1=O)Nc1ccccc1
> 1000 µM: Histone deacetylase 2 | Histone deacetylase 8 | Histone deacetylase 9 | Histone deacetylase 4 | Histone deacetylase 7 | Histone deacetylase 11 | Histone deacetylase 5

O=C(CCCCCC1CNC1=O)Nc1ccccc1 (stereo not drawn)
> 1000 µM: Histone deacetylase 2 | Histone deacetylase 8 | Histone deacetylase 9 | Histone deacetylase 4 | Histone deacetylase 7 | Histone deacetylase 11 | Histone deacetylase 5

— ChEMBL document CHEMBL5352506, “The Zinc-Binding Group Effect: Lessons from Non-Hydroxamic Acid Vorinostat Analogs” (J Med Chem, 2023)
